Test results taken from US20020161007A1, “Non-steroidal modulators of estrogen receptors” (priority 2001, published 2002).

How the values were obtained:
[1] = system: MCF-7 cells; assay: FACS (propidium iodide) assay for apoptotic induction in MCF-7 cells; format: cell-based, human; conditions: 50 μM, 16 hours
Description: EXAMPLE 17—Assay for determining apoptotic induction by compounds
Fluorescence Activated Cell Sorting
Procedure Following treatment of MCF-7 cells with apoptotic compounds, the cells were washed three times with PBS before being trypsinised and centrifuged at 300 g for 5 min. They were then resuspended in 200 μl PBS, made up to 2 ml with ice-cold ethanol (70% v/v) and left to sit on ice for at least 1 h to fix them. Approximately 1 h prior to use they were centrifuged at 300 g for 3 min and the supernatant carefully pipeted off. The pellet was resuspended in 800 μl PBS. RNAase (100 μL; 1mg/mL) and 100 μL of the fluorescent dye propidium iodide (PI; 400 μg/mL) which binds DNA were added. The tubes were vortexed and incubated at 37° C. for 30 min. Flow cytometry was performed with a FACS calibur flow cytometer from Becton Dickinson. FACS data was analysed using the programme Cell Quest.

[2] = system: human breast tumor MCF-7 cell line; assay: MTT antiproliferative assay on human MCF-7 cell line; format: cell-based; conditions: Homo sapiens, MCF7; MTT inhibition of proliferation, mean of triplicate determinations; read-out: IC50 Range
Description: EXAMPLE 14—Determination of the antiproliferative effects on human MCF-7 cell lines.
MTT is a yellow tetrazolium salt which is taken up only by metabolically active cells and subsequently cleaved by mitochondrial dehydrogenases to yield a purple crystalline formazan dye. On solubilisation this purple color may be read spectrophotometrically at 570 nm. The absorbance measured at this wavelength is directly proportional to the amount of viable cells present.
Procedure : The human breast tumor MCF-7 cell line was cultured in Eagles minimum essential medium in a 5% CO2 atmosphere with 10% fetal calf serum. The medium was supplemented with 1% non-essential amino acids. The cells were trypsinized and seeded at a density of 1.5×10^4 into a 96-well plate and incubated at 37° C., 5% CO2 atmosphere for 24 h. […] Control wells contained the equivalent volume of the vehicle ethanol (1% v/v). The culture medium was then removed and the cells washed with 100 μl PBS and 50 μl MTT added, to reach a final concentration of 1 mg/ml MTT added. The cells were incubated for 2 h in darkness at […]. At this point solubilisation was begun through the addition of 200 μl DMSO and the cells maintained at room temperature in darkness for 20 min to ensure thorough color diffusion before reading the absorbance. The absorbance value of control cells (no added compound) was set to 100% cell viability. Graphs of absorbance versus cell density per well were prepared to assess cell viability.

[3] = target: T1, estrogen receptor (Rattus norvegicus, UniProt P06211); assay: Displacement of tritium-labelled estradiol from estrogen receptor-rich uterine cytosol; format: binding; conditions: mean ± SEM
T1 construct: Estrogen receptor-rich cytosol was obtained from the uteri; from tissue; host or cells: uterus of immature Sprague-Dawley rats (cytosol, 100,000 x g supernatant, DCC-treated)
T1 sequence (P06211 1-600): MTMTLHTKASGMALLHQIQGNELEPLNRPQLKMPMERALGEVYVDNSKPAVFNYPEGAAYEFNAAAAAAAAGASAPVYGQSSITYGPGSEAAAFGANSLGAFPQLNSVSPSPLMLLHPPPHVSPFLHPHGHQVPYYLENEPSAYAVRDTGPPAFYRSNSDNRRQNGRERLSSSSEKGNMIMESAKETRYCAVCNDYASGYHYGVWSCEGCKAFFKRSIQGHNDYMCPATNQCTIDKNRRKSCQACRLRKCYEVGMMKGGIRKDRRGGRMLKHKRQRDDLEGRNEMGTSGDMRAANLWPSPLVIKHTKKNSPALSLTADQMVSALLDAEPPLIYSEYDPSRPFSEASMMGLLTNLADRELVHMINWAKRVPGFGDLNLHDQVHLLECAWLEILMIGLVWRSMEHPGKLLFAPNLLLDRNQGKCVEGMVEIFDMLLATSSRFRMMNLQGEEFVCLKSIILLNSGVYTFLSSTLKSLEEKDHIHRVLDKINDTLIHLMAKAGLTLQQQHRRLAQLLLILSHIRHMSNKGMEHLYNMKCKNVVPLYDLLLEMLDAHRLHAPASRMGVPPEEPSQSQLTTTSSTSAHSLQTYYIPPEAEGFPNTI
Description: EXAMPLE 16—Determination of the binding affinity of compounds for estrogen receptor
Binding affinity (Ki value) for the estrogen receptor is measured by the ability of the compound to displace tritium-labelled estradiol from the receptor site.
Procedure Estrogen receptor-rich cytosol was obtained from the uteri of humanely sacrificed Sprague-Dawley immature rats (100-150 g mass). Briefly, the uteri were homogenized in 0.01 M sodium phosphate buffer, pH 7.3, containing 0.15 M NaCl, 0.1% gelatin and 0.01% sodium azide. The homogenate was then centrifuged at 100,000×g, […]. The cytosol thus isolated was pretreated with dextran coated charcoal (DCC on ice) and re-isolated using centrifugation, before freezing at−20° C. for later use. The protein concentration of cytosol samples was determined using a standard Bradford protein assay and an appropriate protein concentration range (150 μg protein in a total volume of 0.14 ml) for assay prepared. The required amounts of tritium-labeled (hot) and non-labeled (cold) estradiol were calculated using standard saturation curve techniques. A fresh buffer solution was prepared (Tris[tris(hydroxymethyl)-aminomethane]buffer-10 mM, pH 7.4, containing 1.5 mM EDTA and 3 mM sodium azide). Displacement testing of the compounds was facilitated through the incubation of a buffered solution of a known concentration of the test compound with hot estradiol solution (specific activity 157 Ci/mmol-final conc. 5 nM/ tube), followed by the addition of estrogen receptor-rich cytosol (150 μg protein). Total and non-specific binding control assays were determined in the absence and presence of 14 μl of a 0.2 mM cold estradiol solution respectively, properly corrected for the presence of ethanol in the test (displacement) samples. Samples were vortexed to ensure homogeneity and refrigerated at […] for 16-20 h. After this time the samples were retreated with DCC on ice and centrifuged for ten min at 3500×g. A 170 μl sample was pipetted from each vial and diluted with 10 ml scintillation fluid (Ecoscint). […] The samples thus prepared were counted for radioactivity by liquid scintillation counting. Binding values were obtained as counts per minute (cpm) and were converted to disintegrations per minute (dpm) and computationally analysed using sigmoidal curve fitting programs EBDA and LIGAND [14] to fit the displacement curves and to calculate binding affinity values (Ki) for the test compounds.
The following table illustrates the relative binding affinity values measured for selected compounds, based on their ability to displace radiolabelled estradiol from estrogen receptor-rich cytosol. Values are expressed as the mean determined±SEM.

SMILES	% Cell cycle phases G1 [1] [%]	% Cell cycle phases G2/M [1] [%]	% Cell cycle phases S [1] [%]	% Cell cycle phases sub-G1 ([1]; sub-G1 apoptotic peak) [%]	IC50 [2] [nM]	Ki [3] [nM]
CCC(Cc1ccccc1)=C(c1ccc(O)cc1)c1ccc(OCCN2CCCC2)cc1 [Compound 25, 4-{2-Benzyl-1-[4-(2-pyrrolidin-1-yl-ethoxy)-phenyl]-but-1-enyl}-phenol]	51.3	21.0	7.6	20.1	10 to 100	
CCC(=C(Cc1ccccc1)c1ccccc1)c1ccc(OCCN2CCCCC2)cc1 [Compound 14, 1-Benzyl-1-phenyl-2-[(4-pipyridinylethoxy)phenyl]but-1-ene]					15000 to 20000	2390 ± 350
